Data taken from ChEMBL document CHEMBL1201862, “PubChem BioAssay data set” (2004).
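Step 1: Grow cells in 96-well plates. Step 2: Expose to compound for 48 hours at 5 concentrations. Step 3: Interpolate endpoints linearly; if unreached, use highest concentration. GI50 marks 50% less growth.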 Active and inactive are the calls of the source. Cut-off read from the data, not from the text of the source: active = GI50 up to about 1.1 µM and inactive = higher.

How the values were obtained:
Assay in all cases: inhibition of tumour cell growth, NCI panel, 48 h
ACHN = test system: ACHN
U-251 = test system: U-251
NCI/ADR-RES = test system: NCI/ADR-RES
MDA-MB-231 = test system: MDA-MB-231
A549 = test system: A549
TK-10 = test system: TK-10
SK-MEL-5 = test system: SK-MEL-5
786-0 = test system: 786-0
SNB-75 = test system: SNB-75
SF-268 = test system: SF-268
NCI-H23 = test system: NCI-H23
RPMI-8226 = test system: RPMI-8226
SK-OV-3 = test system: SK-OV-3
UO-31 = test system: UO-31
OVCAR-3 = test system: OVCAR-3
MCF7 = test system: MCF7
SN12C = test system: SN12C
BT-549 = test system: BT-549
HL-60 = test system: HL-60

Measured: GI50

Fc1cccc(F)c1C(Nc1nncs1)Nc1nncs1
inactive: ACHN > 100 µM | U-251 > 100 µM | NCI/ADR-RES > 100 µM | MDA-MB-231 > 100 µM | A549 > 100 µM | TK-10 > 100 µM | SK-MEL-5 > 100 µM | 786-0 > 100 µM | SNB-75 > 100 µM | SF-268 > 100 µM | NCI-H23 > 100 µM | RPMI-8226 > 100 µM | SK-OV-3 > 100 µM | UO-31 > 100 µM | OVCAR-3 > 100 µM | MCF7 97.7 µM | SN12C > 100 µM | BT-549 > 100 µM

O=c1nc(Oc2c(F)c(F)c(F)c(F)c2F)ccn1C1OC(CO)C(O)C1O (centres undefined)
inactive: ACHN > 100 µM | U-251 > 100 µM | NCI/ADR-RES > 100 µM | MDA-MB-231 > 100 µM | A549 > 100 µM | TK-10 > 100 µM | SK-MEL-5 > 100 µM | 786-0 > 100 µM | SNB-75 > 100 µM | SF-268 > 100 µM | NCI-H23 > 100 µM | RPMI-8226 > 100 µM | SK-OV-3 > 100 µM | UO-31 > 100 µM | OVCAR-3 53.8 µM | MCF7 > 100 µM | SN12C > 100 µM | BT-549 > 100 µM

CO/N=C1\CCC2(O)C3Cc4ccc(O)c5c4C2(CCN3CC2CC2)[C@H]1O5 (some centres undefined)
inactive: ACHN > 100 µM | HL-60 > 100 µM | U-251 > 100 µM | NCI/ADR-RES > 100 µM | MDA-MB-231 > 100 µM | A549 > 100 µM | TK-10 > 100 µM | SK-MEL-5 > 100 µM | 786-0 > 100 µM | SF-268 > 100 µM | NCI-H23 > 100 µM | RPMI-8226 > 100 µM | SK-OV-3 > 100 µM | UO-31 > 100 µM | OVCAR-3 > 100 µM | MCF7 > 100 µM | SN12C > 100 µM | BT-549 > 100 µM

Clc1ccc(Cl)c(NNc2cc(Cl)ccc2Cl)c1
inactive: ACHN 2.84 µM | HL-60 > 10 µM | U-251 7.59 µM | NCI/ADR-RES 2.92 µM | MDA-MB-231 > 10 µM | A549 6.67 µM | TK-10 4.76 µM | SK-MEL-5 2.76 µM | 786-0 > 10 µM | SF-268 4.69 µM | NCI-H23 2.82 µM | RPMI-8226 4.3 µM | SK-OV-3 5.79 µM | OVCAR-3 3.08 µM | MCF7 7.74 µM | SN12C 4.07 µM | BT-549 5.19 µM

CCOC(=O)[C@@]1(C)CC(O)C(=O)N1C (some centres undefined)
inactive: ACHN > 100 µM | HL-60 > 100 µM | U-251 > 100 µM | NCI/ADR-RES > 100 µM | MDA-MB-231 > 100 µM | A549 > 100 µM | TK-10 > 100 µM | SK-MEL-5 > 100 µM | 786-0 > 100 µM | SF-268 > 100 µM | NCI-H23 > 100 µM | RPMI-8226 > 100 µM | SK-OV-3 > 100 µM | UO-31 > 100 µM | OVCAR-3 > 100 µM | MCF7 > 100 µM | SN12C > 100 µM | BT-549 > 100 µM

O=C1CC(=O)NC(NN2C(=O)/C(=C/c3ccccc3)N=C2c2ccccc2)=N1
inactive: ACHN > 100 µM | U-251 > 100 µM | NCI/ADR-RES > 100 µM | MDA-MB-231 > 100 µM | A549 > 100 µM | TK-10 > 100 µM | SK-MEL-5 > 100 µM | 786-0 > 100 µM | SNB-75 > 100 µM | SF-268 > 100 µM | NCI-H23 39 µM | RPMI-8226 > 100 µM | SK-OV-3 > 100 µM | UO-31 32.9 µM | OVCAR-3 > 100 µM | MCF7 > 100 µM | SN12C > 100 µM | BT-549 26.6 µM

O=C(C(=O)n1ccc2ccccc21)n1ccc2ccccc21
inactive: ACHN > 100 µM | U-251 63.4 µM | NCI/ADR-RES > 100 µM | MDA-MB-231 > 100 µM | A549 83.2 µM | TK-10 > 100 µM | SK-MEL-5 > 100 µM | 786-0 91.6 µM | SNB-75 10.7 µM | SF-268 84.7 µM | NCI-H23 75.3 µM | RPMI-8226 > 100 µM | SK-OV-3 48.3 µM | UO-31 > 100 µM | OVCAR-3 > 100 µM | MCF7 > 100 µM | SN12C > 100 µM | BT-549 > 100 µM

CCCCOP(=O)(OCCCC)/C(C#N)=C/c1ccc(C)o1
inactive: ACHN 42.2 µM | U-251 93.3 µM | NCI/ADR-RES 15.5 µM | MDA-MB-231 > 100 µM | A549 47.2 µM | TK-10 > 100 µM | SK-MEL-5 33.7 µM | 786-0 37.1 µM | SNB-75 35.3 µM | SF-268 63.4 µM | NCI-H23 30.4 µM | RPMI-8226 54.8 µM | SK-OV-3 81.5 µM | OVCAR-3 14.5 µM | MCF7 22.6 µM | SN12C 56.1 µM | BT-549 19.1 µM

COc1cc(S(=O)(=O)Nc2nc(-c3ccc(N4C(=O)/C(=C/c5ccccc5)N=C4c4ccccc4)cc3)cs2)ccc1Cl
inactive: ACHN > 100 µM | U-251 36 µM | NCI/ADR-RES > 100 µM | MDA-MB-231 21.3 µM | A549 > 100 µM | TK-10 > 100 µM | SK-MEL-5 26.9 µM | 786-0 63.5 µM | SNB-75 39.6 µM | SF-268 25 µM | NCI-H23 25.2 µM | SK-OV-3 > 100 µM | UO-31 > 100 µM | OVCAR-3 11.9 µM | MCF7 35.6 µM | SN12C 45 µM | BT-549 38.5 µM

O=c1n(-c2ccccc2)c(=O)n2c(-c3ccccc3)c(-c3ccccc3)n12
inactive: ACHN > 100 µM | HL-60 33.4 µM | U-251 > 100 µM | NCI/ADR-RES > 100 µM | MDA-MB-231 > 100 µM | A549 > 100 µM | TK-10 > 100 µM | SK-MEL-5 > 100 µM | 786-0 80.2 µM | SNB-75 76.9 µM | NCI-H23 > 100 µM | SK-OV-3 > 100 µM | UO-31 66.4 µM | OVCAR-3 > 100 µM | MCF7 > 100 µM | SN12C > 100 µM | BT-549 > 100 µM

O=c1[nH]nc(Nc2ccccc2)c2nnn(C3CCCCC3)c12
inactive: ACHN > 100 µM | HL-60 > 100 µM | U-251 > 100 µM | NCI/ADR-RES > 100 µM | MDA-MB-231 > 100 µM | A549 > 100 µM | TK-10 > 100 µM | SK-MEL-5 > 100 µM | 786-0 > 100 µM | NCI-H23 > 100 µM | RPMI-8226 > 100 µM | UO-31 > 100 µM | OVCAR-3 > 100 µM | MCF7 > 100 µM | SN12C > 100 µM | BT-549 > 100 µM

O=C(O)CCC/N=C(\C(=N\CCCC(=O)O)c1ccccc1)c1ccccc1
inactive: ACHN > 100 µM | U-251 > 100 µM | NCI/ADR-RES > 100 µM | MDA-MB-231 > 100 µM | A549 > 100 µM | TK-10 > 100 µM | 786-0 > 100 µM | SNB-75 > 100 µM | SF-268 > 100 µM | NCI-H23 > 100 µM | RPMI-8226 > 100 µM | SK-OV-3 > 100 µM | UO-31 > 100 µM | OVCAR-3 > 100 µM | MCF7 > 100 µM | SN12C > 100 µM | BT-549 > 100 µM

COc1cc(C2SCC(=O)N2c2ccc(NC(C)=O)cc2)cc(OC)c1OC (centres undefined)
inactive: ACHN > 100 µM | HL-60 > 100 µM | U-251 > 100 µM | NCI/ADR-RES 88.3 µM | MDA-MB-231 > 100 µM | A549 > 100 µM | TK-10 > 100 µM | SK-MEL-5 > 100 µM | 786-0 > 100 µM | SF-268 > 100 µM | NCI-H23 > 100 µM | RPMI-8226 > 100 µM | SK-OV-3 > 100 µM | UO-31 > 100 µM | OVCAR-3 > 100 µM | MCF7 51.3 µM | SN12C 81.5 µM | BT-549 36.6 µM

COc1ccc(Cc2c(N)[nH]c(=O)n(C)c2=O)cc1
inactive: ACHN > 100 µM | U-251 > 100 µM | NCI/ADR-RES > 100 µM | MDA-MB-231 92.7 µM | A549 > 100 µM | TK-10 > 100 µM | SK-MEL-5 > 100 µM | 786-0 > 100 µM | SNB-75 11.9 µM | SF-268 34.6 µM | NCI-H23 > 100 µM | RPMI-8226 > 100 µM | SK-OV-3 > 100 µM | UO-31 5 µM | OVCAR-3 > 100 µM | MCF7 5.75 µM | SN12C 42.8 µM | BT-549 > 100 µM

O=C(CN1CCOCC1)Nc1ccc2c(c1)C1Oc3ccccc3CC1CO2 (centres undefined)
inactive: ACHN > 100 µM | U-251 > 100 µM | NCI/ADR-RES > 100 µM | MDA-MB-231 > 100 µM | A549 > 100 µM | TK-10 > 100 µM | SK-MEL-5 58.9 µM | 786-0 > 100 µM | SF-268 > 100 µM | NCI-H23 > 100 µM | RPMI-8226 > 100 µM | SK-OV-3 > 100 µM | UO-31 > 100 µM | OVCAR-3 > 100 µM | MCF7 > 100 µM | SN12C > 100 µM | BT-549 38.1 µM

CC(C)(C)OC(=O)N1CCC[C@H]1CSC[C@@H]1CCCN1C(=O)OC(C)(C)C
inactive: ACHN 32.2 µM | U-251 29.7 µM | NCI/ADR-RES 18.7 µM | MDA-MB-231 31.5 µM | A549 24.4 µM | TK-10 56.9 µM | SK-MEL-5 18.7 µM | 786-0 38.8 µM | SNB-75 23.9 µM | SF-268 39.4 µM | NCI-H23 20.7 µM | SK-OV-3 69.5 µM | UO-31 26.2 µM | OVCAR-3 22.4 µM | MCF7 28.6 µM | SN12C 32.2 µM | BT-549 23.8 µM
